These results are taken from patent publication US20260234139A1, “PGDH INHIBITORS AND METHODS OF MAKING AND USING” (Epirium Bio Inc., priority 2023, published 2026).

Usually IC50 stands for the concentration that gives 50% inhibition. Low values mean greater potency in that assay, high ones weaker potency in that assay. Broadly, the EC50 is the concentration giving half of the maximal effect. The low end stands for an effect from little substance, the high end for a need for much substance.

One test addresses T1, 15-PGDH/HPGD (Homo sapiens, UniProt P15428).
T1 construct: purchased R&D System 5660-DH
T1 sequence (P15428 1-266): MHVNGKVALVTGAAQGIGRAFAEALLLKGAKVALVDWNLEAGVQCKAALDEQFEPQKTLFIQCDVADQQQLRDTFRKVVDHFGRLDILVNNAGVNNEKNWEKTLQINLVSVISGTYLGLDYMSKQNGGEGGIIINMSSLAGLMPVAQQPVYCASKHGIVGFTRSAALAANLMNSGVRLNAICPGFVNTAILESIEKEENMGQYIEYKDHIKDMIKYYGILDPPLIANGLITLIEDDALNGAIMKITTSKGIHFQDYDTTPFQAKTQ
The test can be described thus: hPGDH inhibitor screening biochemical assay. Particulars: 10 nM enzyme, 15 μM Prostaglandin E2, 0.25 mM NAD, fluorescence ex/em 340/485 nm. Here is the method:
A hydroxyprostaglandin dehydrogenase inhibition screening biochemical assay can be performed to assess the synthesized inhibitors provided herein. Provided herein is an exemplary biochemical assay for hPGDH inhibitor screening.
The in vitro biochemical assay can be performed in white, 384 plates in total 20 μl reaction volume consisting of 10 nM of 15-PGDH/HPGD (R&D System #5660-DH), 15 μM Prostaglandin E2 (Sigma, Cat #P5640-10 MG) and 0.25 mM B-Nicotinamide adenine dinucleotide sodium salt (Sigma, Cat #N0632-5G) made in reaction buffer (50 mM Tris-HCl, pH 7.5, 0.01% Tween 20) at 10-point dose response curve for test/tool compounds. Briefly, 5 μl (4×) of compounds solution and 5 μl (final concentration, 10 nM) of enzyme solution is added to white 384 well plates and incubated for 10 mins at 37° C. 5 μl (4×) of Prostaglandin E2 and 5 μl (4×) of β-Nicotinamide adenine dinucleotide sodium salt is added to the wells and incubated for 10 mins at room temperature. Fluorescence is recorded at ex/em=340 nm/485 nm.

Another test has as its system A549. The test can be described thus: A549 EC50 (cell assay, method not described). The format is cell-based. The conditions noted are these: Homo sapiens, A549, A549.

A value given as a limit tells only on which side of the number the result lay.

As for `CCC1(OC[C@H](O)c2cnc3c(cnn3-c3ccc(C(=O)O)cc3)c2)CC1` [Compound 93A], the IC50 on 15-PGDH/HPGD was under 100 nM. The EC50 in the test on A549 lay within 100 to 1000 nM.
`O=C(O)CCc1ccc(-n2ncc3cc([C@H](O)COC4CCCC4)cnc32)cc1F` [Compound 88B] gave an IC50 on 15-PGDH/HPGD of under 100 nM. For the same compound, in the test with A549, the EC50 fell in the range of 100 to 1000 nM.
In the same order, the values of `O=C(O)c1ccc(-n2ncc3cc([C@H](O)COC4CCC4)cnc32)cc1F` [Compound 94B] are under 100 nM and at least 1000 nM.
In the same order, the values of `O=C(O)c1ccc(-n2ncc3cc([C@@H](O)C4(OCC(F)F)CC4)cnc32)cc1` [Compound 72B] are at least 1000 nM and at least 1000 nM.
As to `O[C@H](c1cnc2c(ccn2-c2cccc(-c3nnc[nH]3)c2)c1)C1CCC1` [Compound 10A], at 15-PGDH/HPGD, the IC50 was under 100 nM. The EC50 in the test on A549 was under 100 nM.
Take `O=C(O)c1ccc(-n2ccc3nc([C@H](O)COCC4CC4)cnc32)cc1` [Compound 112B]: on 15-PGDH/HPGD, the IC50 is under 100 nM. In addition, the half-maximal effective concentration (EC50) in the test with A549 was in the range of 100 to 1000 nM.
The corresponding values for `CC(C)OC[C@H](O)c1cnc2c(ccn2-c2cccc(-c3nnc[nH]3)c2)n1` [Compound 20B] are under 100 nM and 100 to 1000 nM.
In the same order, the values of `CCOC[C@H](O)c1cnc2c(cnn2-c2cccc(-c3nnc[nH]3)c2)c1` [Compound 23A] are under 100 nM and 100 to 1000 nM.
In the same order, the values of `CSc1cccc(-n2ncc3cc([C@@H](O)COC4CCC4)cnc32)c1` [Compound 122A] are under 100 nM and at least 1000 nM.
On 15-PGDH/HPGD, `O[C@H](COC1CCC1)c1cnc2c(ccn2-c2cccc(-c3nnc[nH]3)c2)n1` [Compound 30A] gave an IC50 of under 100 nM. The compound further came in with an EC50 in the test on A549 of 100 to 1000 nM.
In the same order, the values of `O[C@H](COC1CCC1)c1cnc2c(cnn2-c2ccc(-c3nnn[nH]3)cc2)c1` [Compound 79A] are under 100 nM and 100 to 1000 nM.
In the same order, the values of `CN(C)C(=O)c1ccc(-n2ncc3cc([C@@H](O)COC4CCC4)cnc32)cc1` [Compound 80B] are at least 1000 nM and at least 1000 nM.
In the case of `CC(C)(O)CC[C@H](O)c1cnc2c(cnn2-c2cccc(-c3nnc[nH]3)c2)c1` [Compound 56A], the IC50 against 15-PGDH/HPGD is under 100 nM. The EC50 in the test with A549 was in the range of 100 to 1000 nM.
In the same order, the values of `CCOC1([C@@H](O)c2cnc3c(cnn3-c3ccc4nc(N5CCOCC5)nn4c3)c2)CC1` [Compound 62B] are 100 to 1000 nM and at least 1000 nM.
The corresponding values for `C[C@@H](OC1CCC1)[C@@H](O)c1cnc2c(cnn2-c2ccc(C(=O)O)cc2)c1` [Compound 108B] are 100 to 1000 nM and 100 to 1000 nM.
At 15-PGDH/HPGD, `CS(=O)(=O)c1ccc(-n2ncc3cc([C@H](O)COC4CCC4)cnc32)cc1` [Compound 121B] yielded an IC50 of at least 1000 nM. Further, the EC50 with A549 is at least 1000 nM.
Consider `CCCC(F)(F)[C@@H](O)c1cnc2c(ccn2-c2cccc(-c3nnc[nH]3)c2)c1` [Compound 4A], for which the IC50 against 15-PGDH/HPGD was under 100 nM. The concentration for a half-maximal effect (EC50) with A549 was in the range of 100 to 1000 nM.
The corresponding values for `CC(C)C[C@@H](O)C(O)c1cnc2c(ccn2-c2cccc(-c3nnc[nH]3)c2)c1` (stereo in doubt) [Compound 3A, (1R,2R)-4-methyl-1-[1-[3-(4H-1,2,4-triazol-3-yl)phenyl]pyrrolo[2,3-b]pyridin-5-yl]pentane-1,2-diol] are under 100 nM and under 100 nM.
Consider `COC1([C@@H](O)c2cnc3c(cnn3-c3cccc(-c4nnc[nH]4)c3)c2)CC1` [Compound 59A], for which, on 15-PGDH/HPGD, the IC50 was under 100 nM. Besides, in the test on A549, the EC50 lay in the range of 100 to 1000 nM.
The corresponding values for `COC1([C@H](O)c2cnc3c(cnn3-c3cccc(-c4nnc[nH]4)c3)c2)CCC1` [Compound 65B] are at least 1000 nM and at least 1000 nM.
In the same order, the values of `C[S+]([O-])c1ccc(-n2ncc3cc([C@H](O)COC4CCC4)cnc32)cc1` (stereo partly drawn) [Compound 124B] are at least 1000 nM and at least 1000 nM.
As to `C[C@H]1C[C@@H](OC[C@H](O)c2cnc3c(cnn3-c3ccc(C(=O)O)cc3)c2)C1` [Compound 127A], at 15-PGDH/HPGD, the concentration for half-maximal inhibition (IC50) was under 100 nM. In the test with A549, this compound had an EC50 of at least 1000 nM.
At 15-PGDH/HPGD, `CC(C)(O)[C@H](O)c1cnc2c(cnn2-c2cccc(-c3nnc[nH]3)c2)c1` [Compound 33A, (R)-1-(1-(3-(4H-1,2,4-triazol-3-yl)phenyl)-1H-pyrazolo[3,4-b]pyridin-5-yl)-2-methylpropane-1,2-diol] showed a half-inhibitory concentration (IC50) of 100 to 1000 nM. The compound further showed an EC50 in the test on A549 of at least 1000 nM.
In the same order, the values of `O[C@H](COC1CCC1)c1cnc2c(cnn2-c2cccc(-c3nnc[nH]3)c2)c1` [Compound 24B] are under 100 nM and under 100 nM.
In the same order, the values of `C[S+]([O-])c1cccc(-n2ncc3cc([C@H](O)COC4CCC4)cnc32)c1` (stereo partly drawn) [Compound 125B] are at least 1000 nM and at least 1000 nM.
In the same order, the values of `CCNCC(O)c1cnc2c(cnn2-c2cccc(-c3nnc[nH]3)c2)c1` (stereo not drawn) [Compound 21] are at least 1000 nM and at least 1000 nM.
Consider `O=C(O)CCc1ccc(-n2ncc3cc([C@@H](O)COC4CCC4)cnc32)cc1F` [Compound 82A], for which the 50% inhibitory concentration (IC50) on 15-PGDH/HPGD was under 100 nM. The compound further came in with a half-maximal effective concentration (EC50) in the test with A549 of 100 to 1000 nM.
In the same order, the values of `NC(=O)c1ccc(-n2ncc3cc([C@@H](O)COC4CCC4)cnc32)cc1` [Compound 81B] are under 100 nM and 100 to 1000 nM.
On to `O[C@@H](COC1CCC1)c1cnc2c(ccn2-c2cccc(-c3nnc[nH]3)c2)n1` [Compound 30B], for which, at 15-PGDH/HPGD, the IC50 was under 100 nM. The compound also yielded a half-maximal effective concentration (EC50) in the test on A549 of under 100 nM.
With `CC(C)(C)OC[C@H](O)c1cnc2c(ccn2-c2cccc(-c3nnc[nH]3)c2)n1` [Compound 26A], the IC50 against 15-PGDH/HPGD is under 100 nM. In the test with A549, the EC50 is 100 to 1000 nM.
Turning to `O[C@H](c1cnc2c(cnn2-c2cccc(-c3nnc[nH]3)c2)c1)[C@H]1CCOC1` [Compound 68B], the IC50 at 15-PGDH/HPGD was under 100 nM. The same compound showed an EC50 in the test with A549 of under 100 nM.
The compound `CC(C)OC[C@@H](O)c1cnc2c(cnn2-c2ccc(CCC(=O)O)cc2)c1` [Compound 69A] came in with an IC50 at 15-PGDH/HPGD of under 100 nM. Besides, the EC50 in the test with A549 is under 100 nM.
`Cc1nn(-c2ccc(C(=O)O)cc2)c2ncc([C@H](O)COC3CC3)cc12` [Compound 126B] yielded an IC50 against 15-PGDH/HPGD of under 100 nM. In the test on A549, this compound had an EC50 of 100 to 1000 nM.
In the same order, the values of `CC(F)(F)[C@H](O)c1cnc2c(ccn2-c2cccc(-c3nnc[nH]3)c2)c1` [Compound 5B] are 100 to 1000 nM and 100 to 1000 nM.
In the same order, the values of `CCCCC(OC)c1cnc2c(ccn2-c2cc(Cl)cc(-c3nnc[nH]3)c2)c1` (stereo not drawn) [Compound 16] are 100 to 1000 nM and 100 to 1000 nM.
As for `CCOC1([C@@H](O)c2cnc3c(cnn3-c3ccc(C(=O)O)cc3)c2)CCC1` [Compound 85B], the IC50 against 15-PGDH/HPGD is at least 1000 nM. For the same compound, in the test on A549, the EC50 is at least 1000 nM.
`CSc1ccc(-n2ncc3cc([C@H](O)COC4CCC4)cnc32)cc1` [Compound 119B] gave an IC50 against 15-PGDH/HPGD of at least 1000 nM. The compound further had an EC50 with A549 of at least 1000 nM.
At 15-PGDH/HPGD, `O=C(O)c1ccc(-n2ccc3nc([C@H](O)COC4CCC4)cnc32)cc1` [Compound 47B] gave an IC50 of under 100 nM. Besides, the EC50 in the test with A549 was under 100 nM.
In turn, `Cc1nn(-c2ccc(C(=O)O)cc2)c2ncc([C@@H](O)COC3CC3)cc12` [Compound 126A] yielded an IC50 against 15-PGDH/HPGD of under 100 nM. In the test on A549, this compound came in with an EC50 of 100 to 1000 nM.
The corresponding values for `C[C@H](OC1CCC1)[C@@H](O)c1cnc2c(cnn2-c2ccc(C(=O)O)cc2)c1` [Compound 108D] are under 100 nM and 100 to 1000 nM.
In the same order, the values of `C[C@H]1C[C@@H](OC[C@@H](O)c2cnc3c(cnn3-c3ccc(C(=O)O)cc3)c2)C1` [Compound 127B] are under 100 nM and under 100 nM.
The corresponding values for `C[S+]([O-])c1ccc(-n2ncc3cc([C@@H](O)COC4CCC4)cnc32)cc1` (stereo partly drawn) [Compound 124A] are under 100 nM and under 100 nM.
For the compound `O=C(O)c1ccc(-n2ncc3cc([C@@H](O)COCC4CC4)cnc32)cc1` [Compound 107A], the IC50 on 15-PGDH/HPGD is under 100 nM. The compound further returned an EC50 with A549 of under 100 nM.
Compound `CNC(=O)c1ccc(-n2ncc3cc([C@@H](O)COC4CCC4)cnc32)cc1` [Compound 84B] gave an IC50 against 15-PGDH/HPGD of 100 to 1000 nM. The compound also yielded an EC50 in the test with A549 of at least 1000 nM.
The corresponding values for `CC(C)OCC[C@@H](O)c1cnc2c(ccn2-c2cccc(-c3nnc[nH]3)c2)c1` [Compound 41B] are under 100 nM and under 100 nM.
Turning to `CNC(=O)c1ccc(-n2ncc3cc([C@@H](O)COC(C)C)cnc32)cc1` [Compound 67B], the IC50 against 15-PGDH/HPGD was under 100 nM. Moreover, the EC50 in the test with A549 was in the range of 100 to 1000 nM.
`C[C@H](OC1CCC1)[C@H](O)c1cnc2c(cnn2-c2ccc(C(=O)O)cc2)c1` [Compound 108C] returned an IC50 at 15-PGDH/HPGD of 100 to 1000 nM. In addition, the EC50 in the test on A549 was 100 to 1000 nM.
On 15-PGDH/HPGD, `CCCC[C@H](O)c1cnc2c(ccn2-c2cccc(-c3nnc[nH]3)c2)n1` [Compound 2A] came in with an IC50 of under 100 nM. The same compound displayed an EC50 with A549 of under 100 nM.
